Counter-ions that a name gives are not always drawn.
Molecular target: T1, G9a (Homo sapiens, UniProt Q96KQ7)
T1 sequence (Q96KQ7 1-1210): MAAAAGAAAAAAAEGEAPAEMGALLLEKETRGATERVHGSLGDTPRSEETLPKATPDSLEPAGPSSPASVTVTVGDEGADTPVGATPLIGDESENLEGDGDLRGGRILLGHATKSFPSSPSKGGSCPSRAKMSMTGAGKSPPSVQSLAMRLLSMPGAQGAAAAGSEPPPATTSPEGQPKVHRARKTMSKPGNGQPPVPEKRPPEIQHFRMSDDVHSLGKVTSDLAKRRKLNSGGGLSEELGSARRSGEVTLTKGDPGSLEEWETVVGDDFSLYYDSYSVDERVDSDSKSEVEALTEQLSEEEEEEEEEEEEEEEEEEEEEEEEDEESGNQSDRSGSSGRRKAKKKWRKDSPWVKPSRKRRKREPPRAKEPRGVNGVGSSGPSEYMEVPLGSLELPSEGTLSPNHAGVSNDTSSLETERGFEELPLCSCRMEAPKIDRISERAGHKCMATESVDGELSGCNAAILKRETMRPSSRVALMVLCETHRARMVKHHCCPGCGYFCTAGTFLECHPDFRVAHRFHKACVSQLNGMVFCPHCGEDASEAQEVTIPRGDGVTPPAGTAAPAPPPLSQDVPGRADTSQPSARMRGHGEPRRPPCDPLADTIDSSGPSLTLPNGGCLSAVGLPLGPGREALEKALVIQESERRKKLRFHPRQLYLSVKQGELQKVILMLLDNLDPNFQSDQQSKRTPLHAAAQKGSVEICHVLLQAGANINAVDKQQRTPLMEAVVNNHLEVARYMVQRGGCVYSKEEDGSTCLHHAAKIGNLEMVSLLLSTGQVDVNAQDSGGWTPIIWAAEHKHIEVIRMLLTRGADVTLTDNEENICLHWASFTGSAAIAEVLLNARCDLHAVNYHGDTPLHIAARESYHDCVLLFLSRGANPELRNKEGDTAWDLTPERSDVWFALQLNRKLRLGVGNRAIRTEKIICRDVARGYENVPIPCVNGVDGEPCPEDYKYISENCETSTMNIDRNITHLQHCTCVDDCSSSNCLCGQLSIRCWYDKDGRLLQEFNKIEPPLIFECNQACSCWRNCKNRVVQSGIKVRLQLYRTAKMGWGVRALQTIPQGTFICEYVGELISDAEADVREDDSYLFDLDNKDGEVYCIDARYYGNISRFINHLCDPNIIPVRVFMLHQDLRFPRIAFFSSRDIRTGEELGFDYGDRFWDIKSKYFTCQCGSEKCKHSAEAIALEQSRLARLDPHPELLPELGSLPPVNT
Assay: G9a AlphaLISA enzymatic activity assay
Format: biochemical
Details: 0.15 nM G9a, 15 uM S-adenosyl-methionine, 100 nM biotinylated histone 3 peptide (1-21), 1 hour at room temperature; read-out: G9a in (uM) (IC50, concentration that produced 50% inhibition)
From the text: The G9a AlphaLISA assay was used to detect the methyl modifications of a biotinylated histone H3 peptide by the compounds. These modifications are done by the histone methyl transferase activity of the G9a enzyme. The assay consists of reading a chemiluminescent signal at 615 nm; this signal is generated by a laser excitation at 680 nm that transfers a reactive singlet oxygen between the donor beads and acceptor beads. Donor beads are streptavidin conjugated and bind to the biotin on the peptide. Acceptor beads are conjugated with an antibody that recognizes the specific G9a methyl mark on the peptide. If there is a methyl mark on the peptide, the acceptor beads will bind to the peptide. Upon binding, the acceptor beads will be in close proximity (<200 nm) of the donor beads and when the donor beads are excited, the transfer of the oxygen can occur and a strong signal will be generated. If there is no methyl mark, the interaction between beads will not occur and signal will be at background levels.
For the assay, the following buffer was used to set up reactions: 50 mM Tris-HCl pH9, 50 mM NaCl, 0.01% Tween-20 and 1 mM DTT (added fresh prior to starting the reactions). The assay is set up by adding a final concentration of 0.15 nM G9a, 15 uM S-adenosyl-methionine and, 100 nM biotinylated histone 3 peptide (1-21). The reaction is incubated at room temperature for 1 hour, and subsequently quenched by the addition of the acceptor beads (anti-H3k9me2 AlphaLISA acceptor beads, PerkinElmer # AL117) at a final concentration of 20 ug/mL. The acceptor beads are incubated for 1 hour. After 1 hour, the donor beads are added at a final concentration of 20 ug/mL (Alpha Streptavidin donor beads, PerkinElmer #6760002). Donor beads are incubated for 0.5 hours. Both donor and acceptor beads are resuspended in AlphaLISA 5X Epigenetics Buffer 1 Kit (PerkinElmer # AL008) prior to addition to the reaction. All manipulations and incubations with the donor and acceptor beads are done in subdued light. Signal is detected in an EnVision plate reader in Alpha mode (see ACS Med Chem Lett. 2014 Jan. 2; 5(2):205-9. doi: 10.1021/m1400496h. eCollection 2014. Discovery and development of potent and selective inhibitors of histone methyltransferase g9a.)
Percent inhibition was calculated for each compound dilution and the concentration that produced 50% inhibition was calculated. This value is presented as the IC50.

Q: For `CCCCNc1nc2cc(OCCCN3CCCC3)c(OC)cc2c2c1CC(C)(C)C2` [Example 91, N-butyl-8-methoxy-2,2-dimethyl-7-[3-(pyrrolidin-1-yl)propoxy]-1H,2H,3H-cyclopenta[c]quinolin-4-amine formate], which IC50 is on record?
A: Its IC50 is 0.007 µM.

Q: For `CCNc1nc2cc(OCCCN3CCCC3)c(OC)cc2c2c1COC2` [Example 60, N-ethyl-8-methoxy-7-[3-(pyrrolidin-1-yl)propoxy]-1H,3H-furo[3,4-c]quinolin-4-amine formate], which IC50 is on record?
A: The IC50 was 0.21 µM.

Q: `COc1cc2c3c(c(NC4CCCCC4)nc2cc1OCCCN1CCCC1)CCC3` [Example 107, N-cyclohexyl-8-methoxy-7-[3-(pyrrolidin-1-yl)propoxy]-1H,2H,3H-cyclopenta[c]quinolin-4-amine trifluoroacetate] was tested. Which IC50 did it give?
A: Its IC50 is 0.016 µM.

Q: With `COc1cc2c3c(c(NCCc4ccccc4)nc2cc1OCCCN1CCCC1)CCC3` [Example 5, 8-methoxy-N-(2-phenylethyl)-7-[3-(pyrrolidin-1-yl)propoxy]-1H,2H,3H-cyclopenta[c]quinolin-4-amine trifluoroacetate] as the compound, how does the IC50 read?
A: Its IC50 is 0.15 µM.

Q: `COc1cc2c3c(c(C4CCOC4)nc2cc1OCCCN1CCCC1)CCC3` (centres unmarked) [Example 98, 1-(3-{[8-methoxy-4-(oxolan-3-yl)-1H,2H,3H-cyclopenta[c]quinolin-7-yl]oxy}propyl)pyrrolidine formate] was tested. Which IC50 did it give?
A: Its IC50 is > 10 µM.

Q: For `COc1cc2c3c(c(NC4CCN(C)CC4)nc2cc1OCCCN1CCCC1)CCC3` [Example 41, N-{8-methoxy-7-[3-(pyrrolidin-1-yl)propoxy]-1H,2H,3H-cyclopenta[c]quinolin-4-yl}-1-methylpiperidin-4-amine formate], which IC50 is on record?
A: Its IC50 is 0.5 µM.

Q: Which IC50 does the source give for `COc1cc2c3c(c(NCCO)nc2cc1OCCCN1CCCC1)CCC3` [Example 4, 2-({8-methoxy-7-[3-(pyrrolidin-1-yl)propoxy]-1H,2H,3H-cyclopenta[c]quinolin-4-yl}amino)ethan-1-oltrifluoroacetate trifluoroacetate] here?
A: The IC50 was 0.04 µM.

Q: How did the IC50 turn out when `COc1cc2c(cc1OCCCN1CCCC1)nc(O)n1nccc21` [Example 56, 9-methoxy-8-[3-(pyrrolidin-1-yl)propoxy]pyrazolo[1,5-c]quinazolin-5-ol formate] was run?
A: The IC50 was 0.46 µM.

Q: Which IC50 does the source give for `COc1cc2c3c(c(NC(C)C)nc2cc1OCCCN1CCCC1)CN(C)CC3` [Example 71, 9-methoxy-3-methyl-N-(propan-2-yl)-8-[3-(pyrrolidin-1-yl)propoxy]-1H,2H,3H,4H-benzo[c]2,7-naphthyridin-5-amine formate] here?
A: The IC50 was 1.1 µM.

Q: `COc1cc2c3c(c(NCC(F)(F)F)nc2cc1OCCCN1CCCC1)CCCC3` [Example 67, 2-methoxy-3-[3-(pyrrolidin-1-yl)propoxy]-N-(2,2,2-trifluoroethyl)-7,8,9,10-tetrahydrophenanthridin-6-amine formate] was tested. Which IC50 did it give?
A: Its IC50 is 2 µM.

Q: How did the IC50 turn out when `CNc1nc2cc(OCCCN3CCCC3)c(OC)cc2c2c1COC2` [Example 59, 8-methoxy-N-methyl-7-[3-(pyrrolidin-1-yl)propoxy]-1H,3H-furo[3,4-c]quinolin-4-amine formate] was run?
A: The IC50 was 0.23 µM.

Q: `COc1cc2c3c(c(NC(C)C)nc2cc1OCCCN1CCOCC1)CCC3` [Example 112, 8-methoxy-7-[3-(morpholin-4-yl)propoxy]-N-(propan-2-yl)-1H,2H,3H-cyclopenta[c]quinolin-4-amine trifluoroacetate] was tested. Which IC50 did it give?
A: The IC50 was > 10 µM.

Q: `COc1cc2c3c(c(C4CC4)nc2cc1OCCCN1CCCC1)CC(C)(C)N3` [Example 36, 1-[3-({4-cyclopropyl-8-methoxy-2,2-dimethyl-1H,2H,3H-pyrrolo[3,2-c]quinolin-7-yl}oxy)propyl]pyrrolidine formate] was tested. Which IC50 did it give?
A: Its IC50 is 0.009 µM.

Q: For `COc1cc2c3c(c(NC4CCCC4)nc2cc1OCCCN1CCCC1)CCC3` [Example 8, N-cyclopentyl-8-methoxy-7-[3-(pyrrolidin-1-yl)propoxy]-1H,2H,3H-cyclopenta[c]quinolin-4-amine trifluoroacetate], which IC50 is on record?
A: The IC50 was 0.04 µM.

Q: Which IC50 does the source give for `CC(C)Nc1nc2cc(OCCCN3CCCC3)c(O)cc2c2c1CCC2` [Example 84, 4-[(propan-2-yl)amino]-7-[3-(pyrrolidin-1-yl)propoxy]-1H,2H,3H-cyclopenta[c]quinolin-8-ol trifluoroacetate] here?
A: The IC50 was 1.6 µM.

Q: For `COc1cc2c3c(c(NCC4CC4)nc2cc1OCCCN1CCCC1)CC(C)(C)C3` [Example 97, N-(cyclopropylmethyl)-8-methoxy-2,2-dimethyl-7-[3-(pyrrolidin-1-yl)propoxy]-1H,2H,3H-cyclopenta[c]quinolin-4-amine formate], which IC50 is on record?
A: Its IC50 is 0.084 µM.

Q: With `COc1cc2c3c(c(C4=CCCC4)nc2cc1OCCCN1CCCC1)CC(C)(C)N3` [Example 83, 1-(3-{[4-(cyclopent-1-en-1-yl)-8-methoxy-2,2-dimethyl-1H,2H,3H-pyrrolo[3,2-c]quinolin-7-yl]oxy}propyl)pyrrolidine] as the compound, how does the IC50 read?
A: Its IC50 is 0.009 µM.

Q: For `COc1cc2c3c(c(NC(C)C)nc2cc1OCCCN1CCCC1)COCC3` [Example 50, 9-methoxy-N-(propan-2-yl)-8-[3-(pyrrolidin-1-yl)propoxy]-1H,2H,4H-pyrano[3,4-c]quinolin-5-amine formate], which IC50 is on record?
A: Its IC50 is 0.24 µM.

Q: `COc1cc2c3c(c(NC(C)C)nc2cc1OCCCN1CCCC1)CCC3` [Example 3, 8-methoxy-N-(propan-2-yl)-7-[3-(pyrrolidin-1-yl)propoxy]-1H,2H,3H-cyclopenta-[c]quinolin-4-amine trifluoroacetate] was tested. Which IC50 did it give?
A: Its IC50 is 0.015 µM.

Q: For `COc1cc2c3c(c(NC4(C(=O)O)CC4)nc2cc1OCCCN1CCCC1)CCC3` [Example 62, 1-({8-methoxy-7-[3-(pyrrolidin-1-yl)propoxy]-1H,2H,3H-cyclopenta[c]quinolin-4-yl}amino)cyclopropane-1-carboxylic acid formate], which IC50 is on record?
A: The IC50 was 0.12 µM.

Q: For `COc1cc2c3c(c(-c4coc(C)c4)nc2cc1OCCCN1CCCC1)CCC3` [Example 90, 1-(3-{[8-methoxy-4-(5-methylfuran-3-yl)-1H,2H,3H-cyclopenta[c]quinolin-7-yl]oxy}propyl)pyrrolidine formate], which IC50 is on record?
A: Its IC50 is 0.6 µM.

Q: How did the IC50 turn out when `COc1cc2c3c(c(-c4ccccc4)nc2cc1OCCCN1CCCC1)CC(C)(C)N3` [Example 114, 1-[3-({8-methoxy-2,2-dimethyl-4-phenyl-1H,2H,3H-pyrrolo[3,2-c]quinolin-7-yl}oxy)propyl]pyrrolidine formate] was run?
A: Its IC50 is 0.17 µM.

Q: With `COc1cc2c3c(c(N[C@H]4CCC[C@H]4O)nc2cc1OCCCN1CCCC1)CCC3` (racemic) [Example 125, (1R,2S)-2-({8-methoxy-7-[3-(pyrrolidin-1-yl)propoxy]-1H,2H,3H-cyclopenta[c]quinolin-4-yl}amino)cyclopentan-1-ol and (1S,2R)-2-({8-methoxy-7-[3-(pyrrolidin-1-yl)propoxy]-1H,2H,3H-cyclopenta[c]quinolin-4-yl}amino)cyclopentan-1-ol (1:1) mixture as formate salt] as the compound, how does the IC50 read?
A: Its IC50 is 1 µM.

— patent US10829452B2, “Histone methyltransferase inhibitors” (GLOBAL BLOOD THERAPEUTICS, INC., priority 2016, dated 2020)
